From paper PMC5060005 (Bioorganic & medicinal chemistry, 2016)
Counter-ions that a name gives are not always drawn. Like-named read-outs stand apart in the source and are kept apart here.

Assays:
5-HT2C receptor = 5-HT2C receptor (Homo sapiens, UniProt P28335); details: MTA = Missed 50% of threshold inhibition; Ki without SEM within 20% of mean
SERT = SERT (Homo sapiens, UniProt P31645); details: MTA = Missed 50% of threshold inhibition; Ki without SEM within 20% of mean
5-HT7 receptor = 5-HT7 receptor (Homo sapiens, UniProt P34969)
5-HT2B receptor = 5-HT2B receptor (Homo sapiens, UniProt P41595); details: MTA = Missed 50% of threshold inhibition; Ki without SEM within 20% of mean
5-HT1A receptor = 5-HT1A receptor (Homo sapiens, UniProt P08908)
5-HT2A receptor = 5-HT2A receptor (Homo sapiens, UniProt P28223)
D2 receptor = D2 receptor (Homo sapiens, UniProt P14416); details: MTA = Missed 50% of threshold inhibition; Ki without SEM within 20% of mean
D3 receptor = D3 receptor (Homo sapiens, UniProt P35462); details: MTA = Missed 50% of threshold inhibition; Ki without SEM within 20% of mean
histamine H1 receptor = histamine H1 receptor (Homo sapiens, UniProt P35367); details: MTA = Missed 50% of threshold inhibition; Ki without SEM within 20% of mean
[1] = MTA = Missed 50% of threshold inhibition, Ki without SEM within 20% of mean

Sequence of 5-HT2C receptor (P28335 33-458): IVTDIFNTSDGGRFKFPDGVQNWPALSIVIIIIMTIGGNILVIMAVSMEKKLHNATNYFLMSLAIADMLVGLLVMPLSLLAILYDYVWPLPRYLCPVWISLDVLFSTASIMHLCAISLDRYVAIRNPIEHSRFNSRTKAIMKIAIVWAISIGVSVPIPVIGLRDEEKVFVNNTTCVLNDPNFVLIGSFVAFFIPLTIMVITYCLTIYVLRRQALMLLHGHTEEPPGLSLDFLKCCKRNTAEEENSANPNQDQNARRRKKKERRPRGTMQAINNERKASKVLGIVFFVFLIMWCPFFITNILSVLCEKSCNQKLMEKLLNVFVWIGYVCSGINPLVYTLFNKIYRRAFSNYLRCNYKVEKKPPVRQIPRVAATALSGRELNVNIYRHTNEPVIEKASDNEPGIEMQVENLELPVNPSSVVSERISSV
Sequence of SERT (P31645 whole entry, species assumed): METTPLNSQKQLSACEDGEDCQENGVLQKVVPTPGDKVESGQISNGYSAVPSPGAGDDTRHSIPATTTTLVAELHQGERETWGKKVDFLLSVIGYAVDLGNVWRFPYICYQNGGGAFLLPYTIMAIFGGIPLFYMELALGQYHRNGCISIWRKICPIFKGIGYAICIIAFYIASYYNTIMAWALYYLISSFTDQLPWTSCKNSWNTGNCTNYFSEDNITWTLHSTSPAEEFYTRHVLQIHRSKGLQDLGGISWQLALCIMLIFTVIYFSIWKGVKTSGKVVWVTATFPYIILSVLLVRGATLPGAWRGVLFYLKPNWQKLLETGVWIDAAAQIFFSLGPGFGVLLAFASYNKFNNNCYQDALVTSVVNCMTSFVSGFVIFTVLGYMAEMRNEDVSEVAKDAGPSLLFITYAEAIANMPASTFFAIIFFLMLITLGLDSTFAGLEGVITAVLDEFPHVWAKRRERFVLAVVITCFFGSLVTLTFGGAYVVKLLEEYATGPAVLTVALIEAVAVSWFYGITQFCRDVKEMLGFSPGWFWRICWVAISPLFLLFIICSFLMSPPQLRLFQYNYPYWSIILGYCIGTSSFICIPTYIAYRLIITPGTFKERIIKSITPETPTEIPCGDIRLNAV
Sequence of 5-HT2B receptor (P41595 whole entry): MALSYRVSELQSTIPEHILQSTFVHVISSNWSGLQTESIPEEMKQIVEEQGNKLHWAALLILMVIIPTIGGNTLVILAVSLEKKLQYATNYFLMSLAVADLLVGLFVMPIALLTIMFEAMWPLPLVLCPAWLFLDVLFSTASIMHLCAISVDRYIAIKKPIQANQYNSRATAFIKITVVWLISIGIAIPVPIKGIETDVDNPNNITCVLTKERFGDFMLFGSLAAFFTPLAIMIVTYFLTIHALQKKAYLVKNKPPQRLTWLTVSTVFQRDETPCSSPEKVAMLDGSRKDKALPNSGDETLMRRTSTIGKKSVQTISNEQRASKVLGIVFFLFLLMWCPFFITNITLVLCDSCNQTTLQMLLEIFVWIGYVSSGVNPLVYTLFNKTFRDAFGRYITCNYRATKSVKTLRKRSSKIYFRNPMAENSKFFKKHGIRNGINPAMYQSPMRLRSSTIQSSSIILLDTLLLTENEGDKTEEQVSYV
Sequence of D2 receptor (P14416 whole entry): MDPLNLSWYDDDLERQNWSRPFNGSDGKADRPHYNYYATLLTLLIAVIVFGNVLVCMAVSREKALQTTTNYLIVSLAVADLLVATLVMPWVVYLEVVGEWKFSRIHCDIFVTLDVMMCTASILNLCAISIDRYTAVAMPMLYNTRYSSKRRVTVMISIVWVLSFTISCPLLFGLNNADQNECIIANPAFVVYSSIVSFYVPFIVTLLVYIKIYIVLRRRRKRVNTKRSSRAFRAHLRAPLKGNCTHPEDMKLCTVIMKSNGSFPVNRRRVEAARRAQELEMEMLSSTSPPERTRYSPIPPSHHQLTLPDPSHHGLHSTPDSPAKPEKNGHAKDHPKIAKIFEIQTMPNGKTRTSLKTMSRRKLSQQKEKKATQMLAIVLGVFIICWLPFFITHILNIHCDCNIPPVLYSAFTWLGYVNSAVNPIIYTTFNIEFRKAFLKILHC
Sequence of 5-HT2A receptor (P28223 whole entry): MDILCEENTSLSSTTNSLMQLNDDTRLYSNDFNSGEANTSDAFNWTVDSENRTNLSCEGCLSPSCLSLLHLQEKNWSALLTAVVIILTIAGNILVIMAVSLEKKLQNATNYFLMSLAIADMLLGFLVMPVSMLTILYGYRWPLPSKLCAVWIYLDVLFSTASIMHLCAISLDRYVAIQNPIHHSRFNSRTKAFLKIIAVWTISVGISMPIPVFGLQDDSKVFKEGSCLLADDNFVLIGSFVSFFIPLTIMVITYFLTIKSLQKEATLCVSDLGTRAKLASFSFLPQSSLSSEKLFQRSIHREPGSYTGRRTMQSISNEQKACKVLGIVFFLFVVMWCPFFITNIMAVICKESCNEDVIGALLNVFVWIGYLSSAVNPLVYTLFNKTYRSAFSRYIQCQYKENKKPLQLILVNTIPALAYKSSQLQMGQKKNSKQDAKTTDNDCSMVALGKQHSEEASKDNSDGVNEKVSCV
Sequence of 5-HT1A receptor (P08908 whole entry): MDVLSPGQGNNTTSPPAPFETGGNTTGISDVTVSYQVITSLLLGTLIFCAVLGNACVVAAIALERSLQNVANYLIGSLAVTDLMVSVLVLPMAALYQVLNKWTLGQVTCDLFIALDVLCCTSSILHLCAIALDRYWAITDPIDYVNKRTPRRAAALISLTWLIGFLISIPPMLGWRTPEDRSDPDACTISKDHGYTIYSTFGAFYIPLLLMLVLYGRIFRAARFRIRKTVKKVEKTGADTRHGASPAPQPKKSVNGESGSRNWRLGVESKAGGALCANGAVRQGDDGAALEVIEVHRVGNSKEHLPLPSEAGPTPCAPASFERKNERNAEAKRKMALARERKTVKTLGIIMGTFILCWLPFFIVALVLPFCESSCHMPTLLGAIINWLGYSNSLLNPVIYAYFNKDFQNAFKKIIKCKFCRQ
Sequence of 5-HT7 receptor (P34969 whole entry): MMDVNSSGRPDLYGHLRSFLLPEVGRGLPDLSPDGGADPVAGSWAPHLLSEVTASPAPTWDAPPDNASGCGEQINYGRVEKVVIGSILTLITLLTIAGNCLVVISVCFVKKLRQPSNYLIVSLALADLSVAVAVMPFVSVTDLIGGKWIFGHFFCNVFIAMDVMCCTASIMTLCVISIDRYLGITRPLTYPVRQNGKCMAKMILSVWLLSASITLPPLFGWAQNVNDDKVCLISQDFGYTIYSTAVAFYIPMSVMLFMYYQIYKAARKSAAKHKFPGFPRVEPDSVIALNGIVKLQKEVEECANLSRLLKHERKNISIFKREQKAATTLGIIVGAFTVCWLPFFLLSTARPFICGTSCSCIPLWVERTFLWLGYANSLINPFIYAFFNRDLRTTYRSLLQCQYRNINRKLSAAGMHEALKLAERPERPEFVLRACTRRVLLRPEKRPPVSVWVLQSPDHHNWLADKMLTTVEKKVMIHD
Sequence of histamine H1 receptor (P35367 whole entry, species assumed): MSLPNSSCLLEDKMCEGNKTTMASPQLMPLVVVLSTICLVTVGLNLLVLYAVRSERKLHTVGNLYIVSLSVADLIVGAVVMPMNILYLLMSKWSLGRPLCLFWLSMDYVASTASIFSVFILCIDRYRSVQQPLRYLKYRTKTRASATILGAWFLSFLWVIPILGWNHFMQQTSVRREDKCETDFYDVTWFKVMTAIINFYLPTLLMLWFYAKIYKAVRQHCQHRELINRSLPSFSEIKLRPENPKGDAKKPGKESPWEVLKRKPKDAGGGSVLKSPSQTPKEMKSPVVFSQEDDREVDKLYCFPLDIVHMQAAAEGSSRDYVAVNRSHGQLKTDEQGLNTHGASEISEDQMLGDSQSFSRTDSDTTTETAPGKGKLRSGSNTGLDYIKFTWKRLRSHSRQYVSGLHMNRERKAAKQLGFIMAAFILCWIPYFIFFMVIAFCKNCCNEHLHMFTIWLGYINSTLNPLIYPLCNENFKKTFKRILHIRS
Sequence of D3 receptor (P35462 whole entry): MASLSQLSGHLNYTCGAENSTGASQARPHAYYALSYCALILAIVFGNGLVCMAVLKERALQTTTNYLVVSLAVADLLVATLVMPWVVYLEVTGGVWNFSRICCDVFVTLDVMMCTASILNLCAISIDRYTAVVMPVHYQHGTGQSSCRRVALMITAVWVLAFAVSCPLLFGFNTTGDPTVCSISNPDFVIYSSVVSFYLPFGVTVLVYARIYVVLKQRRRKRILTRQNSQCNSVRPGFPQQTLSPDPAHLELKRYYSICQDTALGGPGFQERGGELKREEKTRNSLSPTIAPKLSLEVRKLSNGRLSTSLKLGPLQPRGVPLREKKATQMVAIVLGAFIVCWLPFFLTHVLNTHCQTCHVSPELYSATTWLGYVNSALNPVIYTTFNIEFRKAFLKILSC

Compound	Ki 5-HT2C (5-HT2C receptor)	Ki SERT (SERT)	Ki 5-HT2B (5-HT2B receptor)	other results
O=C1c2ccccc2C(=O)N1CCCCN1CCC2CCCCC2C1 (centres unmarked) [Compound 2, 2-(4-(Octahydroisoquinolin-2(1H)-yl)butyl)isoindoline-1,3-dione]				decrease in binding affinity to the 5-HT7R (5-HT7 receptor; relative to compound 1): ~40 fold
O=C1c2ccccc2C(=O)N1CCCCN1Cc2ccccc2C1 [Compound 3, 2-(4-(Isoindolin-2-yl)butyl)isoindoline-1,3-dione]		MTA	MTA	Ki 5-HT1A (5-HT1A receptor; [1]): MTA; Ki 5-HT2A (5-HT2A receptor; [1]): MTA; Ki 5-HT7 (5-HT7 receptor; [1]): MTA; Ki D2 (D2 receptor): MTA; Ki D3 (D3 receptor): MTA; Ki H1 (histamine H1 receptor): MTA
O=C(CCCN1CCc2ccccc2C1)c1ccc(F)cc1 [Compound 10, 4-(3,4-Dihydroisoquinolin-2(1H)-yl)-1-(4-fluorophenyl)butan-1-one]		MTA		increase in binding affinity at the 5-HT1AR (5-HT1A receptor; relative to compound 9): 3 fold
O=C(CCCN1CCc2ccccc2C1)c1ccc(O)cc1 [Compound 15, 4-(3,4-Dihydroisoquinolin-2(1H)-yl)-1-(4-hydroxyphenyl)butan-1-one hydrochloride]	MTA			
Cl.Fc1ccc(OCCCN2CCc3ccccc3C2)cc1 [Compound 7, 2-(3-(4-Fluorophenoxy)propyl)-1,2,3,4-tetrahydroisoquinoline hydrochloride]	MTA	MTA		
O=C1c2ccccc2C(=O)N1CCCCN1CCc2ccccc2C1 [Compound 1, 2-(4-(3,4-Dihydroisoquinolin-2(1H)-yl)butyl)isoindoline-1,3-dione]	MTA	MTA	MTA	Ki 5-HT2A (5-HT2A receptor): MTA; Ki D2 (D2 receptor): MTA; Ki H1 (histamine H1 receptor): MTA

More lines, main results first:

Ki 5-HT2C (5-HT2C receptor)	Ki SERT (SERT)	Ki 5-HT2B (5-HT2B receptor)	Compound	other results
MTA			Cl.Fc1ccc2c(c1)CC(CCN1CCc3ccccc3C1)C2 (centres unmarked) [Compound 5, 2-(2-(5-Fluoro-2,3-dihydro-1H-inden-2-yl)ethyl)-1,2,3,4-tetrahydroisoquinoline hydrochloride]	
MTA	MTA		Cl.[O-][S+](CCCN1CCc2ccccc2C1)c1ccc(F)cc1 (centres unmarked) [Compound 9, 2-(3-((4-Fluorophenyl)sulfinyl)propyl)-1,2,3,4-tetrahydroisoquinoline hydrochloride]	
MTA		MTA	c1ccc2c(c1)CCN(CCCCc1c[nH]c3ccccc13)C2 [Compound 4, 2-(4-(1H-indol-3-yl)butyl)-1,2,3,4-tetrahydroisoquinoline]	
	MTA		Cl.Fc1ccc(SCCCN2CCc3ccccc3C2)cc1 [Compound 8, 2-(3-((4-Fluorophenyl)thio)propyl)-1,2,3,4-tetrahydroisoquinoline hydrochloride]	
